Test results published in US7723068B2, “Gene cluster involved in safracin biosynthesis and its uses for genetic engineering” (PharmaMar, S.A., priority 2002, dated 2010).

Legend:
[1] = tested on: PANC1; conditions: Pancreas
[2] = tested on: IGROV-ET; assay: cells; conditions: for GI50: read-out: GI50 IGROV-ET; for CC50: read-out: LC50 IGROV-ET
[3] = tested on: LN-caP; assay: cells; conditions: Homo sapiens, LNCaP; for GI50: read-out: GI50 LN-caP; for CC50: read-out: LC50 LN-caP
[4] = tested on: LOVO-DOX; conditions: Colon
[5] = tested on: SK-MEL-28; assay: cells; conditions: Homo sapiens; for GI50: SK-MEL-28, read-out: GI50 SK-MEL-28; for CC50: SK-MEL-28, read-out: LC50 SK-MEL-28
[6] = tested on: HELA-APL; conditions: Cervix
[7] = tested on: K-562; conditions: Leukemia
[8] = tested on: SK-BR3; assay: cells; conditions: Homo sapiens; for GI50: SK-BR-3, read-out: GI50 SK-BR3; for CC50: SK-BR-3, read-out: LC50 SK-BR3
[9] = tested on: K-562; assay: cells; conditions: Homo sapiens; for GI50: K562, read-out: GI50 K-562; for CC50: K562, read-out: LC50 K-562
[10] = tested on: HELA; assay: cells; conditions: Homo sapiens; for GI50: read-out: GI50 HELA; for CC50: read-out: LC50 HELA
[11] = tested on: PANC1; assay: cells; conditions: Homo sapiens; for GI50: PANC-1, read-out: GI50 PANC1; for CC50: PANC-1, read-out: LC50 PANC1
[12] = tested on: DU-145; assay: cells; conditions: Homo sapiens; for GI50: DU-145, read-out: GI50 DU-145; for CC50: DU-145, read-out: LC50 DU-145
[13] = tested on: A549; conditions: NSCL
[14] = tested on: LN-caP; conditions: Prostate
[15] = tested on: HT29; assay: cells; conditions: Homo sapiens; for GI50: HT-29, read-out: GI50 HT29; for CC50: HT-29, read-out: LC50 HT29
[16] = tested on: IGROV; conditions: Ovary
[17] = tested on: IGROV-ET; conditions: Ovary
[18] = tested on: SK-MEL-28; conditions: Melanoma
[19] = tested on: HT29; conditions: Colon
[20] = tested on: A549; assay: cells; conditions: Homo sapiens; for GI50: A549, read-out: GI50 A549; for CC50: A549, read-out: LC50 A549
[21] = tested on: HELA-APL; assay: cells; conditions: for GI50: read-out: GI50 HELA-APL; for CC50: read-out: LC50 HELA-APL
[22] = tested on: IGROV; assay: cells; conditions: for GI50: read-out: GI50 IGROV; for CC50: read-out: LC50 IGROV
[23] = tested on: Bacillus subtilis; assay: Antimicrobial activity on solid medium, disk; assay type: cell-based; conditions: 10 μg/disk (6 mm diameter)
Protocol: Antimicrobial activity: On solid medium Bacillus subtilis. 10 μg/disk (6 mm diameter): 10 mm inhibition zone Spectroscopic Data: […]

[24] = Antibacterial and antitumoral activities, general statements; conditions: compared with safracin A / safracin B
[25] = tested on: SK-BR3; conditions: Breast
[26] = tested on: DU-145; conditions: Prostate
[27] = tested on: LOVO; conditions: Colon
[28] = tested on: LOVO-DOX; assay: cells; conditions: for GI50: read-out: GI50 LOVO-DOX; for CC50: read-out: LC50 LOVO-DOX
[29] = tested on: LOVO; assay: cells; conditions: Homo sapiens; for GI50: read-out: GI50 LOVO; for CC50: read-out: LC50 LOVO
[30] = tested on: HELA; conditions: Cervix

Structure (SMILES): COc1c(C)cc2c(c1O)C1NC(C2)C(O)N2C(CNC(=O)C(C)N)c3c(cc(C)c(OC)c3O)CC12 (stereo not drawn) [Safracin P-19B]
- TGI PANC1 [1]: >19.5 µM
- GI50 [2]: 8.74 µM
- CC50 [2]: > 19.5 µM
- GI50 [3]: 3.9 µM
- CC50 [3]: 16.7 µM
- TGI LOVO-DOX [4]: >19.5 µM
- GI50 [5]: 7.9 µM
- CC50 [5]: > 19.5 µM
- TGI HELA-APL [6]: 10 µM
- TGI K-562 [7]: 5.77 µM
- GI50 [8]: 7.08 µM
- CC50 [8]: > 19.5 µM
- GI50 [9]: 2.38 µM
- CC50 [9]: 14 µM
- GI50 [10]: 6.73 µM
- CC50 [10]: > 19.5 µM
- GI50 [11]: 18.1 µM
- CC50 [11]: > 19.5 µM
- GI50 [12]: 17 µM
- CC50 [12]: > 19.5 µM
- TGI A549 [13]: >19.5 µM
- TGI LN-caP [14]: 8.06 µM
- GI50 [15]: 15.5 µM
- CC50 [15]: > 19.5 µM
- TGI IGROV [16]: 14.8 µM
- TGI IGROV-ET [17]: >19.5 µM
- TGI SK-MEL-28 [18]: >19.5 µM
- TGI HT29 [19]: >19.5 µM
- GI50 [20]: > 19.5 µM
- CC50 [20]: > 19.5 µM
- GI50 [21]: 4.8 µM
- CC50 [21]: 19.5 µM
- GI50 [22]: 5.42 µM
- CC50 [22]: > 19.5 µM
- Antimicrobial activity: inhibition zone [23]: NO ACTIVE
- antibacterial and antitumoral activities (in words) [24]: appear to loose their activity
- TGI SK-BR3 [25]: 19.2 µM
- TGI DU-145 [26]: >19.5 µM
- TGI LOVO [27]: >19.5 µM
- GI50 [28]: 14.4 µM
- CC50 [28]: > 19.5 µM
- GI50 [29]: > 19.5 µM
- CC50 [29]: > 19.5 µM
- TGI HELA [30]: 16.1 µM

Structure (SMILES): COc1c(C)cc2c(c1O)C1C3Cc4cc(C)c(OC)c(O)c4C(CNC(=O)C(C)N)N3C(O)C(C2)N1C (stereo not drawn) [Safracin P-22B]
- TGI PANC1 [1]: 11.7 µM
- GI50 [2]: 3.02 µM
- CC50 [2]: 16.5 µM
- GI50 [3]: 0.308 µM
- CC50 [3]: 1.2 µM
- TGI LOVO-DOX [4]: 19 µM
- GI50 [5]: 0.52 µM
- CC50 [5]: 2.01 µM
- TGI HELA-APL [6]: 0.932 µM
- TGI K-562 [7]: 0.467 µM
- GI50 [8]: 0.824 µM
- CC50 [8]: 8.85 µM
- GI50 [9]: 0.113 µM
- CC50 [9]: 1.84 µM
- GI50 [10]: 0.761 µM
- CC50 [10]: 7.42 µM
- GI50 [11]: 4.77 µM
- CC50 [11]: > 19 µM
- GI50 [12]: 4.58 µM
- CC50 [12]: 16.2 µM
- TGI A549 [13]: 8.83 µM
- TGI LN-caP [14]: 0.608 µM
- GI50 [15]: 1.01 µM
- CC50 [15]: 18.6 µM
- TGI IGROV [16]: 2.3 µM
- TGI IGROV-ET [17]: 7.04 µM
- TGI SK-MEL-28 [18]: 0.999 µM
- TGI HT29 [19]: 2.75 µM
- GI50 [20]: 4.71 µM
- CC50 [20]: 16.6 µM
- GI50 [21]: 0.465 µM
- CC50 [21]: 1.86 µM
- GI50 [22]: 0.849 µM
- CC50 [22]: 12.1 µM
- zone of inhibition at 10 µg/disc ([23]; Bacillus subtilis): 10 mm
- antibacterial and antitumoral activities (in words) [24]: appear to loose their activity
- TGI SK-BR3 [25]: 2.28 µM
- TGI DU-145 [26]: 8.62 µM
- TGI LOVO [27]: 6.84 µM
- GI50 [28]: 6.95 µM
- CC50 [28]: > 19 µM
- GI50 [29]: 2.54 µM
- CC50 [29]: 18.4 µM
- TGI HELA [30]: 1.83 µM

Structure (SMILES): COc1c(C)cc2c(c1O)C1C3Cc4cc(C)c(OC)c(O)c4C(CNC(=O)C(C)N)N3CC(C2)N1C (stereo not drawn) [Safracin P-22A]
- TGI PANC1 [1]: >19.6 µM
- GI50 [2]: 13 µM
- CC50 [2]: > 19.6 µM
- GI50 [3]: 4.19 µM
- CC50 [3]: > 19.6 µM
- TGI LOVO-DOX [4]: >19.6 µM
- GI50 [5]: 5.93 µM
- CC50 [5]: > 19.6 µM
- TGI HELA-APL [6]: 19.6 µM
- TGI K-562 [7]: 7.93 µM
- GI50 [8]: 12.7 µM
- CC50 [8]: > 19.6 µM
- GI50 [9]: 3.15 µM
- CC50 [9]: 19.6 µM
- GI50 [10]: 8.75 µM
- CC50 [10]: > 19.6 µM
- GI50 [11]: > 19.6 µM
- CC50 [11]: > 19.6 µM
- GI50 [12]: > 19.6 µM
- CC50 [12]: > 19.6 µM
- TGI A549 [13]: >19.6 µM
- TGI LN-caP [14]: 9.26 µM
- GI50 [15]: 12.6 µM
- CC50 [15]: > 19.6 µM
- TGI IGROV [16]: 19.6 µM
- TGI IGROV-ET [17]: >19.6 µM
- TGI SK-MEL-28 [18]: 13.3 µM
- TGI HT29 [19]: >19.6 µM
- GI50 [20]: > 19.6 µM
- CC50 [20]: > 19.6 µM
- GI50 [21]: 7.66 µM
- CC50 [21]: > 19.6 µM
- GI50 [22]: 7.74 µM
- CC50 [22]: > 19.6 µM
- Antimicrobial activity: inhibition zone [23]: NO ACTIVE
- antibacterial and antitumoral activities (in words) [24]: appear to loose their activity
- TGI SK-BR3 [25]: >19.6 µM
- TGI DU-145 [26]: >19.6 µM
- TGI LOVO [27]: >19.6 µM
- GI50 [28]: > 19.6 µM
- CC50 [28]: > 19.6 µM
- GI50 [29]: > 19.6 µM
- CC50 [29]: > 19.6 µM
- TGI HELA [30]: >19.6 µM
